Assay results as given in US6875757B2, “LPA receptor agonists and antagonists and methods of use” (University of Tennessee Research Foundation, priority 2000, dated 2005).

Assays:
NIH3T3 cells [1] = system: NIH3T3 cells
Procedure: Data points from the intracellular Ca^2+ measurements represent the total peak area of the Ca^2+ transients elicited, as determined by the FLWinLab software (Perkin-Elmer, Wellesley, Mass.). Data points represent the average of at least 3 measurements±standard deviation. The significance of the data points was determined using the students t-test and values were considered significant at p<0.05.
The effect of DGPP 8:0 on LPA-elicited responses was also examined in mammalian systems that endogenously express LPA receptors. NIH3T3 cells were screened by RT-PCR for the presence of mRNA for the Edg and PSP24 receptors.

HEY ovarian cancer cells = experiment: Ca2+ responses in HEY ovarian cancer cells; format: cell-based; conditions: 100 nM LPA 18:1 mixed with 1 μM lipid
Source text: Likewise, PA 8:0 inhibited the Ca^2+ response to 6% of control, whereas PA 18:1 had no effect. HEY express mRNA transcripts for Edg-1, -2, -5, -7 receptors (FIG. 34C).

[2] = system: G-protein coupled receptors for acetycholine; conditions: oocytes injected with rat brain polyA+ mRNA
Source text: (§1) To show the specificity of DGPP 8:0 for the LPA receptors expressed in the oocyte, the expression of neurotransmitter receptors was induced by the injection of polyA+ mRNA from rat brain.

[3] = system: G-protein coupled receptors for serotonin; conditions: oocytes injected with rat brain polyA+ mRNA
Source text: as §1

NIH3T3 cells [4] = experiment: LPA-elicited proliferation of NIH3T3 cells (cell counting); format: cell-based
Procedure: Proliferation of NIH3T3 cells was assessed by direct cell counting as previously described (Tigyi et al., 1999). NIH3T3 cells were plated in 24-well plates at a density of 10,000 cells/well, in DMEM containing 10% FBS. The following day, the cells were rinsed and serum starved in DMEM for 6 hr. Lipids were then added for 24 hr. Cell numbers were determined by counting in a Coulter counter (Coulter Electronics, Hialeah, Fla.).

PSP24 PLGFR = PSP24 PLGFR (Xenopus laevis, UniProt P79945); experiment: Xenopus oocyte assay: LPA-induced oscillatory chloride currents (two-electrode voltage clamp); format: cell-based
Sequence of PSP24 PLGFR (P79945 whole entry): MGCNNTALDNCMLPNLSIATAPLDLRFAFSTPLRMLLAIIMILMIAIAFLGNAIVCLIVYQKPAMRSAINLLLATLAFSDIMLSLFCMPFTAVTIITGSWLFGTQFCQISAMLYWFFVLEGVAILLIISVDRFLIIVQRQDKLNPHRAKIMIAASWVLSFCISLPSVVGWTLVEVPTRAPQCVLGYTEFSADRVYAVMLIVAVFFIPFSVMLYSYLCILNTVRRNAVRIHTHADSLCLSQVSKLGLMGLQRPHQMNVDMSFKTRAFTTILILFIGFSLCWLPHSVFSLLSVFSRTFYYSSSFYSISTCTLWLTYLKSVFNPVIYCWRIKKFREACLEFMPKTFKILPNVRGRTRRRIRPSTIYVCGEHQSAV
Procedure: Xenopus oocytes which endogenously express PSP24 PLGFR were used to screen the newly designed and synthesized compounds for their LPA inhibitory activity.
(§2) Oocytes were obtained from xylazine-anesthetized adult Xenopus laevis frogs (Carolina Scientific, Burlington, N.C.) under aseptic conditions and prepared for experiment. […] Oocytes were kept in Barth's solution in an incubator between 17-20° C. and were used for 2-7 days after isolation.
(§3) Electrophysiological recordings were carried out using a standard two-electrode voltage-clamp amplifier holding the membrane potential at −60 mV (GeneClamp 500, Axon Instruments, Calif.). […] Membrane currents were recorded with a NIC-310 digital oscilloscope (Nicolet, Madison, Wis.). Applications were made at intervals of 15 mins (minimum) to allow for the appropriate washout and recovery from desensitization.
as §2
as §3, with “CA).” for “Calif.).”

human Edg-2 = target: T1, human Edg-2 (Homo sapiens, UniProt Q92633); experiment: Ca2+ responses (Fura-2) in RH7777 cells expressing Edg-2; format: cell-based
T1 construct: expressed in transfected cells
T1 sequence (Q92633 whole entry): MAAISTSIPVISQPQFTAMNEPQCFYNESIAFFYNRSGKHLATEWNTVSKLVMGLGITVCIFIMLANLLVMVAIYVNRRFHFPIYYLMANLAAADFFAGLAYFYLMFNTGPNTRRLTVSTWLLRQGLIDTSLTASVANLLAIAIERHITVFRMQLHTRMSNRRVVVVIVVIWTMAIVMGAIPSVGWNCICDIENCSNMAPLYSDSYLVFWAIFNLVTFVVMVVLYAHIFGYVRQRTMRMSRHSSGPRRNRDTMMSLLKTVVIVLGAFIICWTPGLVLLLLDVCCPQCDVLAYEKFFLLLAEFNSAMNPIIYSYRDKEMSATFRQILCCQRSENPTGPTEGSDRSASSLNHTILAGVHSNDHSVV
Procedure: (§4) RH7777 cells were transfected with the cDNA constructs encoding human Edg-2, Edg-4, or Edg-7 and then were subcloned into the pCDNA3 expression vector using the Cytofectene transfection reagent according to the manufacturers' protocol. Transfected cells were selected in DMEM containing 10% FBS and 1 mg/ml geneticin. Resistant cells were collected and subcloned by limiting dilution. The resulting clones were then screened using functional assays and RT-PCR analysis. Data are representative of three individual clones.

human Edg-4 = target: T2, human Edg-4 (Homo sapiens, UniProt Q9HBW0); experiment: Ca2+ responses (Fura-2) in RH7777 cells expressing Edg-4 (stable or transient); format: cell-based; conditions: 100 nM LPA 18:1 and 1 μM DGPP 8:0
T2 construct: expressed in transfected cells
T2 sequence (Q9HBW0 whole entry): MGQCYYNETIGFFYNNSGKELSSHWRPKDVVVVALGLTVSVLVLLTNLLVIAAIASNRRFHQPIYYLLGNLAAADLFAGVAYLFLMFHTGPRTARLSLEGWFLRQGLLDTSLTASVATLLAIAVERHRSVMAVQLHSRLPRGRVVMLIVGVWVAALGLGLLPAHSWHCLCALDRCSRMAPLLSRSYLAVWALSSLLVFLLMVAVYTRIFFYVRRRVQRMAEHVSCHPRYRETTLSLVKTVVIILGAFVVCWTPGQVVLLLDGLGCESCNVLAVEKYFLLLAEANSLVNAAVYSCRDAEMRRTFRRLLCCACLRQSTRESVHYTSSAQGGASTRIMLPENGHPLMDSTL
Source text: RH7777 cells, stably expressing human Edg-4, were kindly provided by Dr. Kevin Lynch (University of Virginia, Charlottesville, Va.). Flag-tagged cDNA's encoding human Edg-4 and -7 inserted into the pCDNA3 expression plasmid (Invitrogen, Carlsbad, Calif.), were a generous gift from Dr. Junken Aoki (University of Tokyo, Tokyo, Japan). RH7777 and NIH3T3 cells were obtained from the American Type Culture Collection (Manassas, Va.). HEY cells were provided by Dr. Lisa Jennings (University of Tennessee, Memphis). All cell lines were maintained in Dulbecco's Modified Eagle's Medium (DMEM) containing 10% FBS and 2 mM glutamine. Oocytes were obtained from adult Xenopus laevis frogs as previously described (Tigyi et al., 1999).
as §4
RH7777 cells were plated on polylysine-coated glass coverslips (Bellco, Vineland, N.J.) one day prior to transfection. The following day, cells were transfected overnight (16-18 hr) with 1 μg of plasmid DNA mixed with 6 μl of Cytofectene. The cells were then rinsed twice with DMEM and cultured in DMEM containing 10% FBS. The next day, the cells were rinsed with DMEM and serum was withdrawn for a minimum of 2 hr prior to monitoring intracellular Ca^2+.

human Edg-7 = target: T3, human Edg-7 (Homo sapiens, UniProt Q9UBY5); experiment: Ca2+ responses (Fura-2) in RH7777 cells expressing Edg-7; format: cell-based
T3 construct: Flag; expressed in transfected cells
T3 sequence (Q9UBY5 1-353): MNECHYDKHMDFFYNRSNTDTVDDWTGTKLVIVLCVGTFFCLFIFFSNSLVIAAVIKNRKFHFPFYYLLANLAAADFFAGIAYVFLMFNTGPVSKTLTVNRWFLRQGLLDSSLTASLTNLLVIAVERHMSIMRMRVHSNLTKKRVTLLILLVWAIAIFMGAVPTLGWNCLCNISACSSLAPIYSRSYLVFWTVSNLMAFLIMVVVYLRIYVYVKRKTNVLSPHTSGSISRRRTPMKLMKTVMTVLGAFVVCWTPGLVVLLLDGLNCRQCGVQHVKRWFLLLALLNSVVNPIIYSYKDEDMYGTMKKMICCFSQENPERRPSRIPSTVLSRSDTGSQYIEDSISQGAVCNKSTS
Procedure: as §4

[5] = 10-fold excess: 100 nM LPA 18:1 and 1 μM DGPP 8:0
[6] = LPA constant at its EC50 (250 nM LPA 18:1), read-out: IC50, inhibition of LPA-elicited Ca2+ responses

For `CCCCCCCC(=O)OC[C@H](COP(=O)(O)OP(=O)(O)O)OC(=O)CCCCCCC` [DGPP 8:0, diacylglycerol pyrophosphate], the “effect on LPA-elicited Ca2+ responses” value (NIH3T3 cells [1]; 100 nM LPA in the presence of 10 μM DGPP 8:0) was “significantly inhibited”, the “effect on S1P-elicited Ca2+ response” value (NIH3T3 cells [1]; 100 nM S1P in the presence of 10 μM DGPP 8:0) was “not effected” and the “inhibition of the Ca2+ responses” value (NIH3T3 cells [1]; 100-fold excess over LPA) was 40%. For the same compound, the “LPA-elicited Ca2+ response, % of control” value (HEY ovarian cancer cells) was 12 % of control, the “inhibition of carbachol-elicited responses” value [2] was “did not inhibit” and the “inhibition of serotonin-elicited responses” value [3] was “did not inhibit”. For the same compound, the “effect on LPA-induced proliferation” value (NIH3T3 cells [4]; 5 μM LPA 18:1 mixed with 10 μM lipid, 24 hr) was “significantly inhibited”, the “effect on solvent-treated control cells” value (NIH3T3 cells [4]; 10 μM lipid, solvent (BSA) in place of LPA 18:1, 24 hr) was “had no effect” and the “LPA response with compound applied extracellularly” value (PSP24 PLGFR; 5 nM LPA 18:1 and 1 μM DGPP 8:0) was “completely inhibited”. For the same compound, the IC50 (PSP24 PLGFR; 5 nM LPA 18:1 mixed with increasing DGPP 8:0, read-out: IC50, inhibition of Ca2+-mediated inward Cl- currents elicited by LPA) was 0.096 ± 0.021 µM, the “mechanism of action (shift of LPA 18:1 dose response curve)” value (PSP24 PLGFR; 200 nM DGPP 8:0) was “competitive” and the “reversibility of inhibition of LPA-induced chloride currents” value (PSP24 PLGFR; after washing the oocyte) was “reversible”. The “LPA response after intracellular injection of compound” value (PSP24 PLGFR; intracellular injection, estimated >300 nM, extracellular 5 nM LPA 18:1) was “elicited a response equal in size to that of the control”, the “Ca2+ response, % of control” value (human Edg-2; 250 nM LPA 18:1 mixed with 10 μM lipid) was 50 % of control and the “inhibition of LPA-elicited Ca2+ responses” value (human Edg-2; [5]) was “approximately 50%”. For the same compound, the IC50 (human Edg-2; [6]) was 11 ± 0.68 µM, the “mechanism of inhibition (shift of LPA dose response curve)” value (human Edg-2; constant DGPP 8:0, 3 μM) was “competitive” and the “effect on LPA-elicited Ca2+ responses” value (human Edg-4; stable Edg-4) was “unaffected”. The “effect on LPA-elicited Ca2+ responses” value (human Edg-4; transient Edg-4) was “not effected”, the “inhibition of the Ca2+ responses” value (human Edg-7; 250 nM LPA 18:1 mixed with 500 nM lipid) was 50% and the “effect on LPA-elicited Ca2+ responses” value (human Edg-7; [5]) was “completely abolished”. The IC50 (human Edg-7; [6]) was 0.285 ± 0.028 µM and the “mechanism of inhibition (shift of LPA dose response curve)” value (human Edg-7; constant DGPP 8:0, 250 nM) was “competitive”.
